Where no end group is shown, it is not given here.
Tests used:
[1] = system: NHEKs; assay: U1 RNA co-association with early endosome (EEA1) in NHEKs; format: cell-based, human; settings: 37 °C, 4 hours
Description: Figure 2 Structure and cell binding of cathelicidin and dsRNA. (a) Structures of LL37, LL34, and LL34(I20P) bound to dsRNA were solved using SAXS. SAXS data is plotted as the scattering intensity I(q) vs. the momentum transfer vector q. LL34 (blue) and LL34(I20P) (green) condense dsRNA into square lattices with first peak positions of q10 = 0.167 Å^−1 and 0.170 Å^−1, respectively. Higher order Bragg reflections due to scattering of the square lattice of LL34 and LL34(I20P) are labeled for both complexes. In comparison, LL37 (magenta) condenses dsRNA into a columnar lattice with short-ranged order, with a first peak position of q1 = 0.172 Å^−1. (b) Linear fits of Bragg peak positions indicate that LL34-dsRNA (blue) and LL34(I20P)-dsRNA (green) complexes have inter-dsRNA spacings of 3.76 nm and 3.70 nm, respectively. Each reflection corresponding to the peaks in a for LL34 and LL34(I20P) are labeled. Close overlap of the two linear fits indicate that LL34-dsRNA and LL34(I20P)-dsRNA complexes have similar unit cell structures and inter-dsRNA spacings. End-on views along the dsRNA long-axis of the columnar (c) LL37-dsRNA and (d) LL34-dsRNA or LL34(I20P)-dsRNA complexes are shown. In (d), LL34-dsRNA and LL34(I20P)-dsRNA both form square columnar structures with similar unit cell architectures. […]

[2] = system: Group A streptococcus (GAS); format: cell-based
Method: Figure 1 Inflammatory activity of cathelicidin can be dissociated from antimicrobial function (a) Transcriptomic analysis by RNASeq of primary cultures of normal human epidermal keratinocytes (NHEKs) treated with LL37 (2.5 μM) with or without U1 RNA (2.5 μg/mL) for 24 hours. Shown are gene sets induced > 2 fold over vehicle, and after treatment with LL37, U1 RNA, or the combination of LL37 + U1 RNA. (b) Gene Ontology analysis of gene sets from (a). The number of genes related to each biological process is indicated in parentheses. (c) Amino acid sequence of synthetic cathelicidin peptides used in this study. (d) Antimicrobial assay of cathelicidin peptides against group A streptococcus (GAS). GAS were incubated with various concentrations of each peptide (0–25 μM) for 6 hours, then surviving colonies counted after plating on Todd Hewitt Broth gel. (e) IFN-β1 mRNA abundance and (f) IL-6 mRNA abundance in NHEKs after treatment with cathelicidin peptides (2.5 μM) for 10 minutes, then stimulated with U1 RNA (2.5 μg/mL) for a further 6 hours. (n = 3). (g) IFN-β1 mRNA abundance and (h) IL-6 mRNA abundance in […] (PMA)-treated THP1 cells after treatment with cathelicidin peptides (3 μM) for 10 minutes, then stimulated with U1 RNA (12.5 μg/mL) overnight. (n = 3). Data presented are from one representative experiment of at least two independent experiments. […]

| Substance | co-association of U1 RNA with the early endosome [1] | minimal bacteriocidal concentration (MBC) ([2]; 6 h) | antimicrobial activity against group A Streptococcus (GAS) ([2]; GAS incubated with peptide 0–25 μM for 6 hours, surviving colonies counted, Fig. 1d) |
| --- | --- | --- | --- |
| LL37 | induced partial co-association with the early endosome | – | – |
| LLGDFFRKSKEKIGKEFKRIVQRIKDFLRNLVPR [LL34] | induced partial co-association with the early endosome | ca. 5 uM | increased antimicrobial activity compared to LL37 |

Source: article PMC5838106, “Cathelicidin promotes inflammation by enabling binding of self-RNA to cell surface scavenger receptors” (Scientific Reports, 2018)
